Data taken from patent publication US7410975B2, “Small molecule toll-like receptor (TLR) antagonists” (Coley Pharmaceutical Group, Inc., priority 2003, dated 2008).
Structures can show the parent of a compound that is named as a salt.

Biological target: T1, human TLR3 (hTLR3) (Homo sapiens, UniProt O15455)
T1 construct: expressed in transfected cells
T1 sequence (O15455 24-904): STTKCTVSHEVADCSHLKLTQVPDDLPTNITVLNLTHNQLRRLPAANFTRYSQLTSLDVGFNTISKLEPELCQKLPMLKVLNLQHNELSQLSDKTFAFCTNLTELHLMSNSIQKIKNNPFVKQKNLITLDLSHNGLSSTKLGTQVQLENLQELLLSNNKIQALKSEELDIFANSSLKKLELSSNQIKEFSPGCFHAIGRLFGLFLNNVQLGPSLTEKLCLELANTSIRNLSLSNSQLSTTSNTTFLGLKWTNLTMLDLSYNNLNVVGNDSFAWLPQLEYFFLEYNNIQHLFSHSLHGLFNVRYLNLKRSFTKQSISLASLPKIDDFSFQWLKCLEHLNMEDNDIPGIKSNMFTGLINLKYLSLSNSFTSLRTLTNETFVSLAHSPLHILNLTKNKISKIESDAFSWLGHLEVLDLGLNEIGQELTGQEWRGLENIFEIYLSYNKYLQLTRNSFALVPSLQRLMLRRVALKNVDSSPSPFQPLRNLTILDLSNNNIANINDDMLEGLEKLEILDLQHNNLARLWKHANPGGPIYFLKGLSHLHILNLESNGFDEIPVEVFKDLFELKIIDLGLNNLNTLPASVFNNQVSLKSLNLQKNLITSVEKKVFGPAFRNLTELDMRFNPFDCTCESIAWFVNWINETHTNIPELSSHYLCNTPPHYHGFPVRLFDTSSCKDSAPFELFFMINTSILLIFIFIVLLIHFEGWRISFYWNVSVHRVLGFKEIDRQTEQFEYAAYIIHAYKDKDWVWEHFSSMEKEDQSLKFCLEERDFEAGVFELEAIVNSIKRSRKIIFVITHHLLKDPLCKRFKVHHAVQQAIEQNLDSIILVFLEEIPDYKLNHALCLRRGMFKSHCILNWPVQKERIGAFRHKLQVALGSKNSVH
Assay: Antagonist screen, hTLR3-NFκB-293 cells, NF-κB-luciferase reporter, with EC50 of poly(I:C)
Format: cell-based
Details: for hTLR3 (inhibitory effect, antagonist score): compound at 0.5, 5, 50 μg/ml, EC50 concentration of poly(I:C), 16 h, NF-κB-luciferase; for hTLR3 (inhibitory effect): hTLR3-NFκB-293 cells, with EC50 of poly(I:C), compound at 0.5, 5 and 50 μg/ml
Method in brief: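 Scores reflect clear reduction of NF-κB-luciferase signal versus baseline fold induction from EC50 poly(I:C) alone. Compounds tested in duplicate at three final concentrations (0.5, 5, 50 μg/ml) with ligand for 16 h stimulation of hTLR3-NFκB-293 cells plated overnight at 1.5×10^4 per well.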

| Compound | hTLR3 (inhibitory effect, antagonist score) | hTLR3 (inhibitory effect) |
| --- | --- | --- |
| CN1CCc2cccc3c2[C@H]1Cc1ccc(O)c(O)c1-3.Cl [compound 101, Apomorphinehydrochloride (R, —)] | — (compounds for which there was no clear down regulation even at 50 μg/ml) |  |
| CC(C)(C)c1ccc(C(O)CCCN2CCC(C(O)(c3ccccc3)c3ccccc3)CC2)cc1 (stereo not shown) [compound 138, Terfenadine] | 11 (compounds for which there was clear down regulation only at 50 μg/ml) |  |
| CN(C)C(=O)C(CCN1CCC(O)(c2ccc(Cl)cc2)CC1)(c1ccccc1)c1ccccc1 [compound 144, Loperamidehydrochloride] | 11 (compounds for which there was clear down regulation only at 50 μg/ml) |  |
| COc1cc2cc3c4cc(OC)c(OC)cc4cc[n+]3c(C)c2cc1OC [compound 431, Coralyne chloridehydrate] |  | — (compounds for which there was no clear down regulation even at 50 μg/ml) |
| COc1ccc(Cc2nccc3cc(OC)c(OC)cc23)cc1OC.Cl [compound 583, Papaverinehydrochloride] |  | — (compounds for which there was no clear down regulation even at 50 μg/ml) |
| COc1ccc2cc3[n+](cc2c1OC)CCc1cc2c(cc1-3)OCO2.[Cl-] [compound 586, Berberine chloride] |  | 11 (compounds for which there was clear down regulation only at 50 μg/ml) |
| COc1cc2c(cc1O)C[C@H]1c3c(cc(O)c(OC)c3-2)CCN1C [compound 600, Boldine] | — (compounds for which there was no clear down regulation even at 50 μg/ml) |  |
| CN1CCc2cc3c(c4c2C1Cc1ccccc1-4)OCO3.Cl (stereo not shown) [compound 669, Remerine hydrochloride] | — (compounds for which there was no clear down regulation even at 50 μg/ml) |  |
| COc1cc2nc(N3CCN(C(=O)C4CCCO4)CC3)nc(N)c2cc1OC.Cl (stereo not shown) [compound 751, Terazosin hydrochloride] | — (compounds for which there was no clear down regulation even at 50 μg/ml) |  |
| CC[N+](C)(CC)CCC[n+]1c(-c2ccccc2)c2cc(N)ccc2c2ccc(N)cc21.[I-].[I-] [compound 792, Propidium iodide] |  | 12 (compounds for which there was clear down regulation at 5 μg/ml and 50 μg/ml) |
| CN(C)CCN(Cc1ccc(Cl)cc1)c1ccccn1.Cl [compound 807, Chloro-pyraminehydrochloride] |  | — (compounds for which there was no clear down regulation even at 50 μg/ml) |
| CCOc1ccc(Cc2nccc3cc(OCC)c(OCC)cc23)cc1OCC.Cl [compound 830, Ethaverinehydrochloride] |  | — (compounds for which there was no clear down regulation even at 50 μg/ml) |
| COc1cc2nc(N3CCN(C(=O)C4COc5ccccc5O4)CC3)nc(N)c2cc1OC.CS(=O)(=O)O (stereo not shown) [compound 858, Doxazosin mesylate] | — (compounds for which there was no clear down regulation even at 50 μg/ml) |  |
| O=c1c2c(nc(NCCO)n1-c1ccccc1)-c1ccccc1CC21CCCC1 [compound 891] |  | 11 (compounds for which there was clear down regulation only at 50 μg/ml) |
| O=c1c2c(nc(NCCO)n1Cc1ccccc1)-c1ccccc1CC21CCCC1 [compound 926] |  | 12 (compounds for which there was clear down regulation at 5 μg/ml and 50 μg/ml) |
| CN1CCc2c1nc1ccccc1c2N [compound 990, 1-Methyl-2,3-dihydro-1H-pyrrolo[2,3-b]quinolin-4-ylamine] |  | — (compounds for which there was no clear down regulation even at 50 μg/ml) |
| CN1CCc2c1nc1ccccc1c2NC(=O)CN1CCCCCC1 [compound 1003] |  | 11 (compounds for which there was clear down regulation only at 50 μg/ml) |

| Compound | hTLR3 (inhibitory effect, antagonist score) | hTLR3 (inhibitory effect) |
| --- | --- | --- |
| Cc1ccc2nc3c(c(N)c2c1)CCN3C [compound 1091, 1,6-Dimethyl-2,3-dihydro-1H-pyrrolo[2,3-b]quinolin-4-ylamine] |  | 11 (compounds for which there was clear down regulation only at 50 μg/ml) |
| Cc1ccc(-n2c(NCCO)nc3c(c2=O)C2(CCCCC2)Cc2ccccc2-3)cc1 [compound 1137] |  | 13 (compounds for which there was clear down regulation at 0.5 μg/ml, 5 μg/ml, and 50 μg/ml) |
| CN1CCc2c1nc1ccc(Br)cc1c2N [compound 1142, 6-Bromo-1-methyl-2,3-dihydro-1H-pyrrolo[2,3-b]quinolin-4-ylamine] |  | 11 (compounds for which there was clear down regulation only at 50 μg/ml) |
| O=C1c2ccc(S(=O)(=O)c3ccc4c(c3)C(=O)N(c3ccccn3)C4=O)cc2C(=O)N1c1ccccn1 [compound 1163] |  | 11 (compounds for which there was clear down regulation only at 50 μg/ml) |
| CN1CCCCc2c1nc1ccccc1c2N [compound 1185, 1-Methyl-2,3,4,5-tetrahydro-1H-azepino[2,3-b]quinolin-6-ylamine] |  | — (compounds for which there was no clear down regulation even at 50 μg/ml) |
| CN1CCc2c1nc1ccccc1c2NC(=O)CN1CCN(c2ccccc2)CC1 [compound 1212] |  | — (compounds for which there was no clear down regulation even at 50 μg/ml) |
| Cn1c(NN)nc2c(c1=O)C1(CCCC1)Cc1ccccc1-2 [compound 1213] |  | — (compounds for which there was no clear down regulation even at 50 μg/ml) |
| Nc1c2c(nc3ccccc13)N(Cc1ccccc1)CC2 [compound 1217, 1-Benzyl-2,3-dihydro-1H-pyrrolo[2,3-b]quinolin-4-ylamine] |  | 12 (compounds for which there was clear down regulation at 5 μg/ml and 50 μg/ml) |
| CCCCCCN(CCCCCC)CC(=O)Nc1c2c(nc3ccccc13)N(C)CC2 [compound 1224] |  | 12 (compounds for which there was clear down regulation at 5 μg/ml and 50 μg/ml) |
| O=C(CN1CCCC1)Nc1c2c(nc3ccccc13)N(c1ccccc1)CC2 [compound 1244] |  | 11 (compounds for which there was clear down regulation only at 50 μg/ml) |
| NNc1nc2c(c(=O)n1C1CCCC1)C1(CCCC1)Cc1ccccc1-2 [compound 1248] |  | — (compounds for which there was no clear down regulation even at 50 μg/ml) |
| NNc1nc2c(c(=O)n1-c1ccccc1)C1(CCCC1)Cc1ccccc1-2 [compound 1320] |  | — (compounds for which there was no clear down regulation even at 50 μg/ml) |
| O=c1[nH]c(NCCO)nc2c1C1(CCCC1)Cc1ccccc1-2 [compound 1322] |  | 11 (compounds for which there was clear down regulation only at 50 μg/ml) |
| CCCCCCCCCCCC(=O)Nc1c2c(nc3ccccc13)N(C)CC2 [compound 1334] |  | — (compounds for which there was no clear down regulation even at 50 μg/ml) |
| O=C1c2ccc(Oc3ccc(S(=O)(=O)c4ccc(Oc5ccc6c(c5)C(=O)N(c5ccccn5)C6=O)cc4)cc3)cc2C(=O)N1c1ccccn1 [compound 1367] |  | 12 (compounds for which there was clear down regulation at 5 μg/ml and 50 μg/ml) |
| CCN(CC)CCCC(C)Nc1nc(/C=C/c2ccc(Cl)cc2)nc2cc3ccccc3cc12 (stereo not shown) [compound 2000] | 12 (compounds for which there was clear down regulation at 5 μg/ml and 50 μg/ml) |  |
| CCN(CC)CCCNc1nc(-c2ccccc2)nc2ccccc12 [compound 2001] | 11 (compounds for which there was clear down regulation only at 50 μg/ml) |  |
